Experimental data from ChEMBL document CHEMBL1201862, “PubChem BioAssay data set” (2004).
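Method: 48-hour compound exposure of cells in 96-well plates, five concentrations, linear interpolation of endpoints. The concentration for 50% growth inhibition is given as GI50.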 Calls of active or inactive are those of the source. No stated cut-off is given here; in the data, active = GI50 up to about 1.1 µM and inactive = higher.

Experiments:
Experiment in all cases: NCI anticancer screen, dose series, 48 h
[1] = test system: MCF7
[2] = test system: LOX IMVI
[3] = test system: BT-549
[4] = test system: A549
[5] = test system: SF-268
[6] = test system: Malme-3M
[7] = test system: OVCAR-8
[8] = test system: M14
[9] = test system: MOLT-4
[10] = test system: SK-OV-3
[11] = test system: SK-MEL-2
[12] = test system: SNB-19
[13] = test system: SK-MEL-5
[14] = test system: RPMI-8226
[15] = test system: UACC-62
[16] = test system: EKVX
[17] = test system: TK-10
[18] = test system: SF-295
[19] = test system: Hs-578T
[20] = test system: RXF 393

Measured: GI50

O=C1NCN(c2ccccc2)C12CCN(CCc1ccc3[nH]c(=S)[nH]c3c1)CC2
inactive: [1] 28.5 µM | [2] 18.5 µM | [3] 30.5 µM | [4] 66.5 µM | [5] 56.9 µM | [6] 15.6 µM | [7] 51.9 µM | [8] 19.6 µM | [9] 41.4 µM | [10] > 100 µM | [11] 20.7 µM | [12] 43.5 µM | [13] 17.5 µM | [14] 22.3 µM | [15] 64.9 µM | [16] 88.5 µM | [17] 24.7 µM | [18] 51.3 µM | [19] > 100 µM | [20] 13 µM

Cc1cc(C)c(-n2c(-c3ccc(Br)cc3)cs/c2=N\N=C2C=C(C(C)(C)C)C(=O)C(C(C)(C)C)=C2)c(C)c1
inactive: [1] > 100 µM | [2] > 100 µM | [3] > 100 µM | [4] > 100 µM | [5] 69.8 µM | [6] > 100 µM | [7] > 100 µM | [8] > 100 µM | [9] > 100 µM | [10] > 72.9 µM | [11] > 100 µM | [12] 76.2 µM | [13] > 100 µM | [14] > 100 µM | [15] > 81.1 µM | [16] > 100 µM | [17] > 71.8 µM | [18] > 41.5 µM | [19] 15.3 µM | [20] 21.7 µM

Cc1ccc(O)c(C(c2cccc(C(c3cc(C)ccc3O)c3cc(C)ccc3O)c2)c2cc(C)ccc2O)c1
inactive: [1] 1.58 µM | [2] 1.54 µM | [3] 2.43 µM | [4] 1.97 µM | [5] 1.6 µM | [6] 1.87 µM | [7] 2 µM | [8] 1.88 µM | [9] 2.6 µM | [10] 1.87 µM | [11] 2.1 µM | [12] 1.89 µM | [13] 2.44 µM | [14] 1.55 µM | [15] 1.99 µM | [16] 1.82 µM | [17] 1.82 µM | [18] 2.24 µM | [19] 1.56 µM | [20] 1.69 µM

OC(C/C(=N\N=C(/CC(O)(C(F)(F)F)C(F)(F)F)c1ccccc1)c1ccccc1)(C(F)(F)F)C(F)(F)F
inactive: [1] > 10 µM | [2] > 10 µM | [3] > 10 µM | [4] > 10 µM | [5] > 10 µM | [6] > 10 µM | [7] > 10 µM | [8] > 10 µM | [9] > 10 µM | [10] > 10 µM | [11] > 10 µM | [12] > 10 µM | [13] > 10 µM | [14] > 10 µM | [15] > 10 µM | [16] > 10 µM | [17] > 10 µM | [18] 6.44 µM | [19] > 10 µM | [20] 3.17 µM
